In US20250041479A1, “PHOTO-ENZYMATIC PRINTING” (The Board of Trustees of the Leland Stanford Junior …, priority 2021, published 2025):

Experiments:
Type in all cases: physicochemical
[1] = Razo cis-trans thermal conversion in the dark; details: after long UV exposure, kept in the dark for 15 minutes
Experimental: (§1) Razo as a stock solution of 70 mM in DMSO was diluted to 25 μM Razo in buffer (20 mM Tris-HCl, pH 7.4, 40 mM KCl). Absorbance spectra were acquired on a PerkinElmer UV-Vis spectrometer and sample illumination light was from a Lumencor Aura light engine, with a Blue light output centered on 475 nm with 28 nm bandpass filter and UV light output centered on 360 nm with a 28 nm bandpass filter. cis-Razo and trans-Razo Absorbance spectra shapes agreed with those from the paper where Razo was originally developed (Wang, et al. Angew. Chem., Int. Ed. 2010, 49, 5305). We aimed to characterize several features of the isomerization that are relevant to inform printing parameters for patterning of the substrate: light kinetics, dark kinetics, and durability.
After a long UV exposure to drive Razo to the cis dominated photostationary state, the sample was kept in the dark for 15 and 90 minutes.

[2] = Durability of the Razo cis-trans interconversion; details: blue then UV to photostationary states, repeated 15 times
Experimental: as §1
Blue light was applied until the trans-dominated photostationary state was reached (blue curve in FIG. 5). Then UV light was applied until the cis-dominated photostationary state was reached (purple curve in FIG. 5).

[3] = Razo cis-trans conversion using light (UV-Vis absorbance spectra)
Experimental: as §1
After a long Blue (referred to as ‘visible’ in legend) light exposure to drive Razo to a trans dominated photostationary state, the amount of UV light necessary to drive Razo to the cis dominated photostationary state was determined to be roughly 10 seconds at 25% power (approximately 15 mW/cm^2).
After a long UV light exposure to drive Razo to a cis dominated photostationary state, the amount of Blue light necessary to drive Razo to the trans dominated photostationary state was determined to be roughly 10 seconds at 50% power (approximately 50 mW/cm^2).

SMILES: C[N+]1(CCOc2ccc(/N=N/c3ccc(OCC[N+]4(C)CCCCC4)cc3)cc2)CCCCC1 [Razo]
- relaxation of cis to trans in the dark [1]: almost no relaxation of cis to trans
- isomerization efficiency over repeated blue/UV cycles [2]: isomerization efficiency is maintained over 15 cycles
- amount of UV light necessary to drive Razo to the cis dominated photostationary state ([3]; 25 μM Razo in buffer (20 mM Tris-HCl, pH 7.4, 40 mM KCl), after long Blue exposure, UV 360 nm at 25% power (approximately 15 mW/cm^2)): roughly 10 seconds
- amount of Blue light necessary to drive Razo to the trans dominated photostationary state ([3]; 25 μM Razo in buffer, after long UV exposure, Blue 475 nm at 50% power (approximately 50 mW/cm^2)): roughly 10 seconds
